Experimental data reported in patent US20220024882A1, “NOVEL TUMOR ANTIGEN BINDING AGENTS AND USES THEREOF” (ITM Isotopen Technologien München AG, priority 2018, published 2022).
Where “and” joins values, the source holds several entries; their conditions need not be identical. Identical values can stand only once.

Assays:
[1] = tested on: PC-3 PIP/flu tumor-bearing mice; test: Biodistribution study in PC-3 PIP/flu tumor-bearing mice; type: in vivo, athymic nude Balb/c mice; conditions: for PC-3 flu Tumor: PSMA-negative tumor xenograft; for PC-3 flu Tumor / PC-3 PIP Tumor: mice; for PC-3 PIP Tumor: PSMA-positive tumor xenograft
Procedure: (§1) In vivo experiments were approved by the local veterinarian department and conducted in accordance with the Swiss law of animal protection. Mice were obtained from Charles River Laboratories, Sulzfeld, Germany, at the age of 5-6 weeks. Female, athymic nude Balb/c mice were subcutaneously inoculated with PSMA-positive PC-3 PIP cells (6×10^6 cells in 100 μL Hank's balanced salt solution (HBSS) with Ca^2+/Mg^2+) on the right shoulder and with PSMA-negative PC-3 flu cells (5×10^6 cells in 100 μL HBSS Ca^2+/Mg^2+) on the left shoulder. Two weeks later, the tumors reached a size of about 80-300 mm^3 suitable for the performance of the biodistribution studies.
Biodistribution studies were performed 12-15 days after PC-3 PIP/flu tumor cell inoculation. […] The radioligands were injected in a lateral tail vein in a volume of 100-200 μL. Mice were euthanized at different time points after injection (p.i.) of the radioligands. Selected tissues and organs were collected, weighed and measured using a γ-counter. The results were decay-corrected and listed as a percentage of the injected activity per gram of tissue mass (% IA/g) (Table 3 and 4).
Mice were obtained from Charles River Laboratories, Sulzfeld, Germany, at the age of 5-6 weeks. Female, athymic nude BALB/c mice were subcutaneously inoculated with PSMA-positive PC-3 PIP cells (6×10^6 cells in 100 μL Hank's balanced salt solution (HBSS)) on the right shoulder and with PSMA-negative PC-3 flu cells (5×10^6 cells in 100 μL HBSS) on the left shoulder. Two weeks later, the tumors reached a size of about 80-300 mm^3 suitable for the performance of the biodistribution and imaging studies.
Biodistribution studies were performed 12-15 days after PC-3 PIP/flu tumor cell inoculation. ^177Lu-Ibu-sPSMA was diluted in 0.9% NaCl containing 0.05% bovine serum albumin (BSA) to prevent adhesion to the vial and syringe material. The radioligand was injected in a lateral tail vein in a volume of 100 μL. Mice were euthanized at different time points after injection (p.i.) of the radioligand. Selected tissues and organs were collected, weighed and measured using a γ-counter. The results were decay-corrected and listed as a percentage of the injected activity per gram of tissue mass (% IA/g) (Table 6, FIG. 18).

[2] = Whole-body activity measurements, tumor-bearing mice; type: in vivo, athymic nude Balb/c mice; conditions: 4 h p.i., 30 MBq, 1 nmol i.v., activity right after injection = 100%
Procedure: as §1, with “imaging” for “biodistribution”
The single radioligands (specific activity: 30 MBq/nmol) were diluted in 0.9% NaCl containing 0.05% bovine serum albumin (BSA) and i.v. injected into PC-3 PIP/flu tumor bearing mice (30 MBq, 1 nmol, 100 μL) for SPECT/CT imaging purposes. The mice were measured in a dose calibrator at 4 h, 24 h, 48 h and 72 h p.i., respectively.

[3] = Whole-body activity measurements, non-tumor bearing mice; type: in vivo; conditions: 4 h after injection, 25 MBq, 1 nmol i.v.
Procedure: All albumin-binding radioligands (molar activity: 25 MBq/nmol) were diluted in 0.9% NaCl containing 0.05% BSA and i.v. injected into non-tumor bearing mice (25 MBq, 1 nmol, 100 μL). The mice were measured in a dose calibrator at various time-points up to 56 h p.i. The radioligands were compared with previously obtained data from ^177Lu-PSMA-617.

[4] = tested on: PSMA-positive PC-3 PIP tumor-bearing mice; test: In vivo therapy study; parameters: species or system athymic nude BALB/c mice; conditions: for first mouse of group euthanized / median survival / TGDI5 (tumor growth delay index, 5-fold increase of tumor size): 1 nmol per mouse; for TGDI5 (tumor growth delay index, 5-fold increase of tumor size): controls = 1.0
Procedure: Mice were obtained from Charles River Laboratories, Sulzfeld, Germany, at the age of 5-6 weeks. Female, athymic nude BALB/c mice were subcutaneously inoculated with PSMA-positive PC-3 PIP cells (4×10^6 cells in 100 μL Hank's balanced salt solution (HBSS)) on the right shoulder. Six days later, the tumors reached a size of about 30-160 mm^3 suitable for the performance of the in vivo therapy study. Mice were euthanized when a predefined endpoint criterion was reached or when the study was finalized at Day 84. Endpoint criteria were defined as (i) body weight loss of >15%, (ii) a tumor volume of >800 mm^3 (iii) a combination of body weight loss of >10% and a tumor volume of >700 mm^3 or (iv) signs of unease and pain or a combination thereof.
Six days after subcutaneous inoculation of 4×10^6 PC-3 PIP tumor cells inoculation, three groups with statistically similar body weight and tumor volumes were intravenously injected. One group was injected with only the vehicle (saline containing 0.05% bovine serum albumin (BSA); Group A; n=6), and another two groups with ^177Lu-Ibu-DAB-PSMA (Group B: 2 MBq, 1 nmol (n=6) and Group C: 5 MBq, 1 nmol (n=6)) at Day 0 of the therapy study (Table 7). The monitoring of mice and the assessment of the therapy study was conducted as described by Eiber et al., J. Nucl. Med., 2017, 58 (Suppl. 2) 67S-76S). In short, the mice were monitored by measuring body weight and tumor size every second day over a period of 12 weeks. The relative body weight (RBW) was defined as [BWx/BW0], where BWx is the body weight in grams at a given Day x and BW0 is the body weight in grams at Day 0. The tumor dimensions were determined by measuring the longest tumor axis (L) and its perpendicular axis (W) with a digital caliper. The tumor volume (V) was calculated according to the equation [V=0.5×(LW^2)]. The relative tumor volume (RTV) was defined as [TVx/TV0], where TVx is the tumor volume in mm^3 at a given day x, and TV0 is the tumor volume in mm^3 at Day 0.
The efficacy of the radionuclide therapy was expressed as the tumor growth delay (TGDx), which was calculated as the time required for the tumor volume to increase x-fold over the initial volume at Day 0. The tumor growth delay index [TGDIx=TGDx(T)/TGDx(C)] was calculated as the TGDx ratio of treated mice (T) over the TGDx average of control mice (C) for a 5-fold (x=5, TGD5) increase of the initial tumor volume. The median survival was calculated using GraphPad Prism software (version 7). Survival of mice was assessed using Kaplan-Meier curves to determine median survival of mice of each group using Graph Pad Prism software (version 7).

[5] = 4 h p.i., PC-3 PIP/flu tumor-bearing mice
[6] = 24 h p.i., PC-3 PIP/flu tumor-bearing mice

Compound `CC(C)Cc1ccc(C(C)C(=O)NC(CCN)C(=O)NCCCCC(NC(=O)CN2CCN(CC(=O)O)CCN(CC(=O)O)CCN(CC(=O)O)CC2)C(=O)NCC2CCC(C(=O)NC(Cc3ccc4ccccc4c3)C(=O)NCCCCC(NC(=O)NC(CCC(=O)O)C(=O)O)C(=O)O)CC2)cc1` (stereo not shown) [^177Lu-Ibu-DAB-PSMA, metal not drawn] has a Blood [1, 5] of 3.66 ± 0.45 % IA/g, a Bone [1, 5] of 0.62 ± 0.08 % IA/g and a Heart [1, 5] of 1.32 ± 0.10 % IA/g. For the same compound, the Intestines [1, 5] was 0.71 ± 0.05 % IA/g, the Kidneys [1, 5] was 19.4±1.84 % IA/g and the Liver [1, 5] was 1.50 ± 0.12 % IA/g. For the same compound, the Lung [1, 5] was 2.40 ± 0.31 % IA/g, the Muscle [1, 5] was 0.54 ± 0.09 % IA/g and the Salivary glands [1, 5] was 0.86 ± 0.38 % IA/g. The Spleen [1, 5] was 1.14 ± 0.11 % IA/g, the Stomach [1, 5] was 0.62 ± 0.12 % IA/g and the Tumor-to-blood [1, 5] was 18.2 ± 2.69. For the same compound, the Tumor-to-kidney [1, 5] was 3.01 ± 0.49, the Tumor-to-liver [1, 5] was 44.6 ± 8.41 and the “PC-3 flu Tumor” value ([1]; 4 h p.i.) was 1.19 ± 0.30 % IA/g. For the same compound, the “PC-3 PIP Tumor” value ([1]; 4 h p.i.) was 66.2 ± 11.0 % IA/g, the Bone [1, 6] was 0.09 ± 0.02 % IA/g and the Heart [1, 6] was 0.10 ± 0.01 % IA/g. It also gave an Intestines [1, 6] of 0.11 ± 0.03 % IA/g, a Kidneys [1, 6] of 6.00±0.68 % IA/g and a Liver [1, 6] of 0.56 ± 0.10 % IA/g. It also gave a Lung [1, 6] of 0.21 ± 0.03 % IA/g, a Muscle [1, 6] of 0.05 ± 0.01 % IA/g and a Salivary glands [1, 6] of 0.56 ± 0.37 % IA/g. It also gave a Spleen [1, 6] of 0.32 ± 0.03 % IA/g, a Stomach [1, 6] of 0.18 ± 0.13 % IA/g and a Tumor-to-blood [1, 6] of 337 ± 40.4. The Tumor-to-kidney [1, 6] was 8.88 ± 0.99, the Tumor-to-liver [1, 6] was 98.3 ± 21.1 and the “PC-3 flu Tumor” value ([1]; 24 h p.i.) was 0.17 ± 0.01 % IA/g. The “PC-3 PIP Tumor” value ([1]; 24 h p.i.) was 52.4 ± 2.35 % IA/g, the “whole-body retention of radioactivity” value [2] was 17% and the whole-body retained activity [3] was 18%. The “first mouse of group euthanized” value ([4]; 2 MBq) was 26 days, the median survival ([4]; 2 MBq) was 34 days and the “TGDI5 (tumor growth delay index, 5-fold increase of tumor size)” value ([4]; 2 MBq) was 1.6 and 1.6 ± 0.4. For the same compound, the “average relative body weight at the time of euthanasia” value ([4]; 5 MBq per mouse) was 1.06±0.10, the “day on which the two mice with tumor regrowth reached the endpoint” value ([4]; 5 MBq per mouse) was 70 days and 82 days and the “mice of the group in which the tumors disappeared entirely” value ([4]; 5 MBq per mouse, n=6) was “four”. For the same compound, the “mice still alive at the end of the study at Day 84” value ([4]; 5 MBq per mouse, n=6) was “four”, the “first mouse of group euthanized” value ([4]; 5 MBq) was 70 days and the “TGDI5 (tumor growth delay index, 5-fold increase of tumor size)” value ([4]; 5 MBq) was “not defined”. For the same compound, the median survival ([4]; 5 MBq, study end Day 84) was “undefined”.
